The nature of data set [1]: Investigation of maximum tolerated dose (body weight of mice). The data set is classed as in vivo, mouse. The settings on record: 14 days. The protocol: Toxicity Body weight change is an indicator of systemic toxicity. Accordingly, the body weights of mice intraperitoneally treated with different doses (0.04 and 0.4 µg/mouse) of either 1 or 3 were measured (Fig. S1). […] A blood hematological examination (including nineteen parameters) was also conducted on these mice on Day 14 (Fig. S2). There were no significant changes in almost any of the parameters in the mice treated with either 1 or 3 at doses of 0.04 or 0.4 µg/mouse.

In another data set the test system is MIA PaCa-2 cells. The settings on record: read-out: IC50 MIA PaCa-2; human pancreatic carcinoma cell, 72 h, mean ± SE (n = 3). As for the experimental part: With a range of chromophore analogues in hand, their toxicity to SW620 cells was investigated by WST assays.
Basically, the evaluation was performed using methods previously reported by our group[20],[23]. Cytotoxic activities of compounds against MIA PaCa-2 (American Type Culture Collection), SW620 (European Collection of Authenticated Cell Cultures) were measured by WST-8 assay according to manufacturer’s protocol. Briefly, cells (1 × 10^4 cells/well) in a 96-well plate were cultured in medium (for MIA PaCa-2, D-MEM (Wako, Japan) containing 10% fetal bovine serum (Funakoshi, Japan), 100 units/mL penicillin G and 100 µg/mL streptomycin (Wako, Japan), for SW620, RPMI-1640 (Wako, Japan) containing 10% fetal bovine serum, 100 units/mL penicillin G and 100 µg/mL streptomycin) were cultured at 37 °C for 24 h under 5% CO2 atmosphere. Then, cells were treated with test compounds (final DMSO concentration was 1%) at 37 °C for 72 h under 5% CO2 atmosphere. Then, cells were treated with a solution of Cell Counting Kit-8® (Dojindo, Japan) for 3 h. After that, cell viabilities were determined based on the measurement of absorption at 450 nm of the wells by using TECAN Infinite® M200 microplate reader. The results were expressed as a percentage of the negative control (cells treated with DMSO only), and that value was fixed at 100%.

Details of data set [2]: method as in PMID 2737217. The settings on record: doses of 60 and 120 μg/m^2; cited from earlier work.
In another data set the test system is SW620 xenograft. Put plainly: SW620 xenograft mouse model. It is filed as in vivo. The settings on record: i.p. 0.04 and 0.4 µg/mouse daily for 10 days, compared to PBS-injected group. As for the experimental part: Since the metabolic stability and identification of the maximum tolerated dose of 3 were confirmed, the effect of 3 on colon cancer progression in vivo was then investigated (Fig. 7). A xenograft model was generated by injecting a suspension of 2 × 10^6 SW620 cells into the backs of nude mice. The doses of the compounds were 0.04 and 0.4 µg/mouse, which correspond to approximately 1.6 and 16 μg/kg, respectively, according to the results obtained in Fig. S1. A solution of 1, 3, or PBS was injected intraperitoneally into each mouse, and tumor sizes were measured each day. […] Of note is the efficacy of tumor growth inhibition with 3.
Figure 7 In vivo anticancer activity of echinomycin and 3 on the SW620 xenograft mice model. Male BALB/C nude mice were administered by intraperitoneal injection with the vehicle, echinomycin and 3, at dosages of 0.04 and 0.4 µg/mice (n = 10 each group), every day for 10 days (a, b). Average tumor volume (c) was measured. Data are expressed as the mean ± standard error ([…]). *Indicates P < 0.05 by Student's t test. The error bars show the s.d. (n = 10).
Basically, the experiments were performed using methods previously reported. […] The tumor size was calculated by the following formula: Tumor size (mm^2) = (major diameter) × (minor diameter).

The nature of data set [3]: Hepatic microsomal stability assay, human. The data set is classed as in vitro ADME. The settings on record: microsomes, 1 μM, 0.2 mg/mL microsomes, 37 °C, 30 min. As for the experimental part:
Before investigating the in vivo efficacy of 3, its metabolic stability was evaluated by treatment with human or mouse liver microsomes at 37 °C for 30 min, and the remaining analogues were analyzed by LC–MS/MS (Table 3). […] This means that approximately 67% of 3 was unaffected by human liver microsomes.
Basically, the analysis was performed using methods previously reported. Disappearance of the parent compound over time was measured by using the amount of drug at time zero as a reference. After 5 min of preincubation, 1 mM NADPH (final concentration, the same applies to the following, NADPH( +)) or 0.1 M phosphate buffer (pH 7.4, NADPH(−))) was added to a mixture containing 1 μM of the test compound, 0.2 mg/mL of human or mouse liver microsomes (Sekisui XenoTech LLC (Kansas City, KS)), 1 mM EDTA and 0.1 M phosphate buffer (pH 7.4) and incubated at 37 °C for 30 min by rotation at 60 rpm. An aliquot of 50 μL of the incubation mixture was sampled and added to 250 μL of chilled acetonitrile/internal standard (IS). After centrifuging for 15 min at 3150×g (4 °C), the supernatants were analyzed by LC–MS/MS. Hepatic microsomal stability (mL/min/kg, CLint) was calculated according to the previous report, using 48.8 and 45.4 mg MS protein/g liver and 25.7 and 87.5 g liver/kg body weight as scaling factors for human and mouse, respectively.
Basically, the analysis was performed using methods previously reported. An LC-MS8060 instrument equipped with a Shimadzu Nexera series LC system (Shimadzu, Kyoto, Japan) was used. All compounds were analyzed in multi-reaction monitoring mode under electron spray ionization conditions. The analytical column used was a […] C18 MGIII (3 μm × 2.0 mmID × 35 mm; OSAKA SODA, Osaka, Japan) at 50 °C. The gradient mobile phase consisted of 0.1% formic acid in water (mobile phase A,) and 0.1% formic acid in acetonitrile (mobile phase B) at a total flow rate of 1 mL/min. The initial mobile phase composition was 10% B, which was held constant for 0.2 min, increased in a linear fashion to 90% B over 1 min, then held constant for 0.8 min, and finally brought back to the initial condition of 10% B over 0.01 min and re-equilibrated for 1 min. The transitions (precursor ion > product ion) of echinomycin, 3 and IS (methyl testosterone) are 1101.45 > 1053.5 (positive), 1083.5 > 523.95 (negative), and 303.1 > 109.1 (positive), respectively.

Read-outs that look alike come from different tables or passages of the source.

The IC50 is the point on the concentration scale where inhibition reaches its midpoint. Regarding `CS[C@H]1SC[C@H]2C(=O)N(C)[C@@H](C(C)C)C(=O)OC[C@@H](NC(=O)c3cnc4ccccc4n3)C(=O)N[C@@H](C)C(=O)N(C)[C@@H]1C(=O)N(C)[C@@H](C(C)C)C(=O)OC[C@@H](NC(=O)c1cnc3ccccc3n1)C(=O)N[C@@H](C)C(=O)N2C` [Compound 1, Echinomycin], the body weight entry in data set [1] (i.p. 0.04 and 0.4 µg/mouse, daily) is recorded as “did not differ greatly from those of the control”. In addition, the “dose up to which no significant toxicity is shown” value in data set [1] (i.p. daily, body weight and blood examination) is not below 0.04 µg/mouse. Besides, in the data set on MIA PaCa-2 cells, the IC50 was 0.75 ± 0.02 nM. For the same compound, the “toxicity at lower doses in human clinical trials” value in data set [2] is “no observed toxicity”. Moreover, the tumor growth entry in the data set with SW620 xenograft is “significantly suppressed”. Also, the CLint scaled in data set [3] (NADPH(+), read-out: Metabolic stability (CLint) Human NADPH(+)) was less than 22 mL/min/kg; in data set [3] (NADPH(−), read-out: Metabolic stability (CLint) Human NADPH(−)), less than 22 mL/min/kg.

Values taken from PMC10985088, “Synthesis and biological evaluation of echinomycin analogues as potential colon cancer agent” (Scientific Reports, 2024).
